Measurements as given in ChEMBL document CHEMBL1201862, “PubChem BioAssay data set” (2004).
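Each compound was tested at five concentrations against cells in 96-well plates for 48 hours. GI50 is the concentration that inhibits growth by half.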 Active and inactive are the calls of the source. Cut-off read from the data, not from the text of the source: active = GI50 up to about 1.1 µM and inactive = higher.

How the values were obtained:
Experiment in all cases: DTP human tumour cell line panel, 48 h
HCT-15 = test system: HCT-15
CCRF-CEM = test system: CCRF-CEM
UACC-257 = test system: UACC-257
UO-31 = test system: UO-31
OVCAR-3 = test system: OVCAR-3
SW-620 = test system: SW-620
SK-OV-3 = test system: SK-OV-3
MDA-MB-435 = test system: MDA-MB-435
786-0 = test system: 786-0
T47D = test system: T47D
HT-29 = test system: HT-29
HL-60 = test system: HL-60
KM12 = test system: KM12
SK-MEL-5 = test system: SK-MEL-5
SNB-75 = test system: SNB-75
CAKI-1 = test system: CAKI-1
COLO 205 = test system: COLO 205
SN12C = test system: SN12C
OVCAR-5 = test system: OVCAR-5
RPMI-8226 = test system: RPMI-8226
SK-MEL-28 = test system: SK-MEL-28
HCT-116 = test system: HCT-116
RXF 393 = test system: RXF 393
MDA-N = test system: MDA-N
IGROV-1 = test system: IGROV-1
SF-268 = test system: SF-268
UACC-62 = test system: UACC-62
MOLT-4 = test system: MOLT-4
BT-549 = test system: BT-549
SNB-19 = test system: SNB-19
SF-539 = test system: SF-539
MDA-MB-231 = test system: MDA-MB-231
TK-10 = test system: TK-10
HOP-92 = test system: HOP-92
K562 = test system: K562
M14 = test system: M14
EKVX = test system: EKVX
NCI-H23 = test system: NCI-H23
Hs-578T = test system: Hs-578T
Malme-3M = test system: Malme-3M
MCF7 = test system: MCF7
HOP-62 = test system: HOP-62
DU-145 = test system: DU-145
A498 = test system: A498
NCI/ADR-RES = test system: NCI/ADR-RES
OVCAR-4 = test system: OVCAR-4
SK-MEL-2 = test system: SK-MEL-2
HCC 2998 = test system: HCC 2998
ACHN = test system: ACHN
NCI-H460 = test system: NCI-H460
NCI-H522 = test system: NCI-H522
OVCAR-8 = test system: OVCAR-8
SF-295 = test system: SF-295
PC-3 = test system: PC-3
LOX IMVI = test system: LOX IMVI
NCI-H226 = test system: NCI-H226
U-251 = test system: U-251
A549 = test system: A549
SR = test system: SR

What does the source list for C[C@H](CCC1=NCCN1)[C@H]1CC[C@H]2[C@@H]3[C@H](O)C[C@@H]4C[C@H](O)CC[C@]4(C)[C@H]3CC[C@]12C?
GI50 (HCT-15): 16.5 µM; GI50 (CCRF-CEM): 12.7 µM (inactive); GI50 (UACC-257): 15 µM (inactive); GI50 (UO-31): 14.6 µM (inactive); GI50 (OVCAR-3): 13.7 µM (inactive); GI50 (SW-620): 15.6 µM (inactive); GI50 (SK-OV-3): 19.1 µM (inactive); GI50 (MDA-MB-435): 13.7 µM (inactive); GI50 (786-0): 14.6 µM (inactive); GI50 (T47D): 14.8 µM (inactive); GI50 (HT-29): 2.54 µM (inactive); GI50 (HL-60): > 10 µM (inactive); GI50 (KM12): 14.6 µM (inactive); GI50 (SK-MEL-5): 11.8 µM (inactive); GI50 (SNB-75): 10.6 µM (inactive); GI50 (CAKI-1): 24 µM (inactive); GI50 (COLO 205): 8.57 µM (inactive); GI50 (SN12C): 21.1 µM (inactive); GI50 (OVCAR-5): 14.5 µM (inactive); GI50 (RPMI-8226): 14.7 µM (inactive); GI50 (SK-MEL-28): 14.2 µM (inactive); GI50 (HCT-116): 13.6 µM (inactive); GI50 (RXF 393): 15.8 µM (inactive); GI50 (MDA-N): 17.3 µM (inactive); GI50 (IGROV-1): 11.7 µM (inactive); GI50 (SF-268): 13.2 µM (inactive); GI50 (UACC-62): 11.4 µM (inactive); GI50 (MOLT-4): 11.1 µM (inactive); GI50 (BT-549): 12.3 µM (inactive); GI50 (SNB-19): 13.4 µM (inactive); GI50 (SF-539): 12.9 µM (inactive); GI50 (MDA-MB-231): 16.7 µM (inactive); GI50 (TK-10): 13.8 µM (inactive); GI50 (HOP-92): 8.89 µM (inactive); GI50 (K562): 6.3 µM (inactive); GI50 (M14): 15.3 µM (inactive); GI50 (EKVX): 17.9 µM (inactive); GI50 (NCI-H23): 14.3 µM (inactive); GI50 (Hs-578T): 12.4 µM (inactive); GI50 (Malme-3M): 15.6 µM (inactive); GI50 (MCF7): 15.2 µM (inactive); GI50 (HOP-62): 16.1 µM (inactive); GI50 (DU-145): 14.3 µM (inactive); GI50 (A498): 13.3 µM (inactive); GI50 (NCI/ADR-RES): 28.8 µM (inactive); GI50 (OVCAR-4): 14.9 µM (inactive); GI50 (SK-MEL-2): 16.3 µM (inactive); GI50 (HCC 2998): 15.2 µM (inactive); GI50 (ACHN): 16.4 µM (inactive); GI50 (NCI-H460): 12 µM (inactive); GI50 (NCI-H522): 14.7 µM (inactive); GI50 (OVCAR-8): 15.6 µM (inactive); GI50 (SF-295): 15.5 µM (inactive); GI50 (PC-3): 8.85 µM (inactive); GI50 (LOX IMVI): 10.3 µM (inactive); GI50 (NCI-H226): 15 µM (inactive); GI50 (U-251): 12.8 µM (inactive)

With Cc1cnc2c(c1)C(=O)N(c1ccc(Oc3ccccc3)cc1)S2(=O)=O as the compound, how does the GI50 (HCT-15) read?
Its GI50 is > 100 µM.

And the GI50 (CCRF-CEM)?
Its GI50 is > 100 µM (inactive).

And the GI50 (UACC-257)?
The GI50 was > 100 µM (inactive).

And the GI50 (UO-31)?
The GI50 was > 100 µM (inactive).

And the GI50 (OVCAR-3)?
The GI50 was > 100 µM (inactive).

What about the GI50 (SW-620) of the same compound?
The GI50 was > 100 µM (inactive).

And the GI50 (SK-OV-3)?
Its GI50 is > 100 µM (inactive).

And the GI50 (MDA-MB-435)?
The GI50 was > 100 µM (inactive).

What about the GI50 (786-0) of the same compound?
The GI50 was > 100 µM (inactive).

What about the GI50 (T47D) of the same compound?
Its GI50 is > 100 µM (inactive).

And the GI50 (A549)?
The GI50 was > 100 µM (inactive).

And the GI50 (HT-29)?
Its GI50 is > 100 µM (inactive).

What about the GI50 (HL-60) of the same compound?
Its GI50 is > 100 µM (inactive).

And the GI50 (KM12)?
The GI50 was > 100 µM (inactive).

What about the GI50 (SK-MEL-5) of the same compound?
Its GI50 is > 100 µM (inactive).

What about the GI50 (SNB-75) of the same compound?
The GI50 was > 100 µM (inactive).

And the GI50 (CAKI-1)?
The GI50 was > 100 µM (inactive).

What about the GI50 (COLO 205) of the same compound?
The GI50 was > 100 µM (inactive).

And the GI50 (SN12C)?
The GI50 was > 100 µM (inactive).

And the GI50 (OVCAR-5)?
The GI50 was > 100 µM (inactive).

What about the GI50 (RPMI-8226) of the same compound?
The GI50 was > 100 µM (inactive).

And the GI50 (SK-MEL-28)?
Its GI50 is > 100 µM (inactive).

What about the GI50 (HCT-116) of the same compound?
Its GI50 is > 100 µM (inactive).

And the GI50 (MDA-N)?
Its GI50 is > 100 µM (inactive).

What about the GI50 (IGROV-1) of the same compound?
Its GI50 is 57.8 µM (inactive).

And the GI50 (SF-268)?
The GI50 was > 100 µM (inactive).

What about the GI50 (UACC-62) of the same compound?
The GI50 was > 100 µM (inactive).

And the GI50 (MOLT-4)?
The GI50 was > 100 µM (inactive).

What about the GI50 (BT-549) of the same compound?
Its GI50 is > 100 µM (inactive).

What about the GI50 (SNB-19) of the same compound?
Its GI50 is > 100 µM (inactive).

And the GI50 (SF-539)?
Its GI50 is > 100 µM (inactive).

And the GI50 (MDA-MB-231)?
The GI50 was > 100 µM (inactive).

What about the GI50 (TK-10) of the same compound?
Its GI50 is > 100 µM (inactive).

What about the GI50 (HOP-92) of the same compound?
Its GI50 is > 100 µM (inactive).

What about the GI50 (K562) of the same compound?
Its GI50 is > 100 µM (inactive).

What about the GI50 (M14) of the same compound?
Its GI50 is > 100 µM (inactive).

What about the GI50 (EKVX) of the same compound?
The GI50 was > 100 µM (inactive).

And the GI50 (NCI-H23)?
Its GI50 is > 100 µM (inactive).

And the GI50 (Hs-578T)?
The GI50 was > 100 µM (inactive).

What about the GI50 (Malme-3M) of the same compound?
Its GI50 is 67.1 µM (inactive).

And the GI50 (MCF7)?
The GI50 was > 100 µM (inactive).

What about the GI50 (HOP-62) of the same compound?
Its GI50 is > 100 µM (inactive).

And the GI50 (DU-145)?
Its GI50 is > 100 µM (inactive).

What about the GI50 (NCI/ADR-RES) of the same compound?
The GI50 was > 100 µM (inactive).

And the GI50 (OVCAR-4)?
The GI50 was 83.8 µM (inactive).

And the GI50 (SK-MEL-2)?
The GI50 was > 100 µM (inactive).

What about the GI50 (HCC 2998) of the same compound?
Its GI50 is > 100 µM (inactive).

What about the GI50 (ACHN) of the same compound?
Its GI50 is > 100 µM (inactive).

And the GI50 (SR)?
The GI50 was > 100 µM (inactive).

And the GI50 (NCI-H460)?
The GI50 was > 100 µM (inactive).

And the GI50 (NCI-H522)?
The GI50 was 57.7 µM (inactive).

And the GI50 (OVCAR-8)?
Its GI50 is > 100 µM (inactive).

What about the GI50 (SF-295) of the same compound?
The GI50 was > 100 µM (inactive).

What about the GI50 (PC-3) of the same compound?
Its GI50 is > 100 µM (inactive).

What about the GI50 (LOX IMVI) of the same compound?
The GI50 was > 100 µM (inactive).

And the GI50 (NCI-H226)?
The GI50 was 59.6 µM (inactive).

And the GI50 (U-251)?
Its GI50 is > 100 µM (inactive).
